Measurements reported in article doi:10.1101/2022.03.24.485529v3, “Distinct bile salt hydrolase substrate preferences dictate C. difficile pathogenesis” (biorxiv, 2022).

Assays:
LingBSH = target: T1, LingBSH (Limosilactobacillus ingluviei, UniProt A0A0R1U3N2); assay: deconjugation of AA-CA pool by LC-IMS-MS; format: biochemical; details: pool of CA conjugated to 22 amino acids
T1 construct: gene FC43_GL000624; heterologously expressed and purified; homotetramer; species inferred from the abbreviation Ling
T1 sequence (A0A0R1U3N2 2-327): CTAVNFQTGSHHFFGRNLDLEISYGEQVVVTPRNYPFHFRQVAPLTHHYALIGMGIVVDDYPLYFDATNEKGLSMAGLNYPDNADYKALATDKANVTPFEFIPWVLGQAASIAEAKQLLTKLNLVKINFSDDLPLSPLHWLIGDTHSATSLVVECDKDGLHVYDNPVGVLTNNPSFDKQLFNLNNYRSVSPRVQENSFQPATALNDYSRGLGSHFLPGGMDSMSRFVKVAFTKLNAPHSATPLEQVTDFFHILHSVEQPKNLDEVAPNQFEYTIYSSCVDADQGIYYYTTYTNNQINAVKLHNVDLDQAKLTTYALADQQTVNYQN

LgasBSHa = target: T2, LgasBSHa (Lactobacillus gasseri, UniProt A0A805Z5R7); assay: X-ray crystallography; format: binding; details: active site
T2 construct: gene bsh; heterologously expressed and purified; homotetramer, neighbouring monomer donates loop to active site
T2 sequence (A0A805Z5R7 2-316): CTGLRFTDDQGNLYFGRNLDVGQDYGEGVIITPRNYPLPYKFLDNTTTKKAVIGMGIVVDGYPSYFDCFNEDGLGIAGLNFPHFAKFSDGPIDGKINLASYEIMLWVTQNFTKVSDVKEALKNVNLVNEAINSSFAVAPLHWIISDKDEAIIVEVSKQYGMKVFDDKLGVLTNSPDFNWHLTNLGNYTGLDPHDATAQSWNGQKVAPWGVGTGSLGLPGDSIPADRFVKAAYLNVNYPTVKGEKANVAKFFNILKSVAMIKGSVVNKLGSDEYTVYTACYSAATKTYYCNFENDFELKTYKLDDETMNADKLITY

C[C@H](NC(=O)CC[C@@H](C)[C@H]1CC[C@H]2[C@@H]3[C@H](O)C[C@@H]4C[C@H](O)CC[C@]4(C)[C@H]3C[C@H](O)[C@]12C)C(=O)O [Ala-CA]
% deconjugation after 5 minutes (LingBSH; also purified Ala-CA (enzyme not named in that sentence)): Ala and Ser-conjugated BAs are efficiently processed

C[C@H](CCC(=O)O)[C@H]1CC[C@H]2[C@@H]3[C@H](O)C[C@@H]4C[C@H](O)CC[C@]4(C)[C@H]3CC[C@]12C [CDCA]
X-ray crystallography (LgasBSHa; ternary complex with taurine): LgasBSHa was resolved in complexes with taurine or taurine plus CDCA

C[C@H](CCC(=O)N[C@@H](CO)C(=O)O)[C@H]1CC[C@H]2[C@@H]3[C@H](O)C[C@@H]4C[C@H](O)CC[C@]4(C)[C@H]3C[C@H](O)[C@]12C [Ser-CA]
% deconjugation after 5 minutes (LingBSH; also purified Ser-CA (enzyme not named in that sentence)): Ala and Ser-conjugated BAs are efficiently processed

NCCS(=O)(=O)O [taurine]
X-ray crystallography (LgasBSHa; complexes with taurine alone and with taurine plus CDCA): LgasBSHa was resolved in complexes with taurine or taurine plus CDCA
